{
  "source": "patent US20100330607A1",
  "about": "“PHOTOSWITCH-ENABLED ION CHANNEL ASSAY SYSTEM” (Photoswitch Biosciences, Inc., priority 2009, published 2010)",
  "origin": "cited, not measured here",
  "key": {"[1]": {"conditions": "read-out: Kd for Ca^2+"}, "[2]": {"conditions": "in the dark, in solution"}, "late INa [3]": {"test_system": "late INa", "conditions": "ventricular myocytes from guinea-pig hearts"}, "late INa [4]": {"test_system": "late INa", "conditions": "ventricular myocytes from dog hearts"}},
  "note": "pKd: −log10 of the molar value. Where two headings read alike, the source gives them in different places.",
  "data": [
    {"molecule": "Cc1ccc(N(CC(=O)O)CC(=O)O)c(OCCOc2cc(-c3c4cc(Cl)c(=O)cc-4oc4cc(O)c(Cl)cc34)ccc2N(CC(=O)O)CC(=O)O)c1", "note": "[Fluo-3]", "values": [
      {"measurement": "pKd", "setting": "[1]", "value": 6.41}
    ]},
    {"molecule": "Maleimide-Azobenzene-Glutamate [MAG]", "values": [
      {"measurement": "rate of thermal relaxation, from cis to trans", "setting": "[2]", "value": "about 18 mins"}
    ]},
    {"molecule": "COc1ccccc1OCC(O)CN1CCN(CC(=O)Nc2c(C)cccc2C)CC1", "note": "(centres unmarked) [ranolazine]", "values": [
      {"measurement": "inhibition of the late INa", "setting": "late INa [3]", "value": "concentration-, voltage- and frequency-dependent inhibition"},
      {"measurement": "inhibition of the late INa", "setting": "late INa [4]", "value": "concentration-, voltage- and frequency-dependent inhibition"}
    ]},
    {"molecule": "Fluo-4", "values": [
      {"measurement": "pKd", "setting": "[1]", "value": 6.46}
    ]}
  ]
}
